Experimental data as given in patent EP0642504B1 (priority 1991, dated 1993).
Marks after values point to notes of the source that are not given here.

What was measured:
[1] = tested on: Arachidonic Acid-Induced Paw Edema; assay: Arachidonic acid-induced paw edema (water displacement); assay type: in vivo, CD-1 female mice; conditions: for percent inhibition of paw edema: oral, 30 min after arachidonic acid (1.0 mg s.c.), vs vehicle treated controls
Method: The induction of paw edema in rodents by injection of arachidonic acid has been used as an experimental model for inflammation [Calhoun, W., et al., Agents and Actions, 21, 306 (1987)]. Prior administration of non-steroidal anti-inflammatory drugs (NSAIDs) in many cases leads to a dose related inhibition of the edematous response which may be considered a predictor of clinical efficacy.
(§1) The conditions were based on those reported previously [Calhoun et al., ibid.]. […] PAF (1.0 µg) or arachidonic acid (1.0 mg) dissolved in 50 µl of 5% ethanol in saline, were injected s.c. into the plantar surface of the right hind paw of CD-1 female mice (20-25 g) obtained from Charles River Labs. The mice were under ether anesthesia during this procedure. The volume of the right foot was measured to the level of the lateral malleous by water displacement before treatment and 15 min after PAF injection or 30 min after archidonate injection. The change in paw volume was calculated for each mouse and the significance for each group was determined by a paired t test analysis.

[2] = tested on: PAF-Induced Paw Edema; assay: PAF-induced paw edema (water displacement); assay type: in vivo, CD-1 female mice; conditions: for percent inhibition of paw edema: oral, 15 min after PAF (1.0 µg s.c.), vs vehicle treated controls
Method: A second model, in which edema is induced by platelet activating factor (PAF), was used to evaluate activity.
as §1

[3] = tested on: peritoneal leukocytes; assay: Leukocyte adhesion assay, peritoneal cells collected after oral dosing; assay type: in vivo, CD-1 mice
Method: Leukocytes are thought to be major contributors to the inflammatory response and their ability in this regard is reflected by their adhesiveness to a variety of substrates [Audette, C.A., et al., Life Sci., 47, 753 (1990)].
The details of the leukocytes adhesion assay have been previously reported [Audette et al., ibid.]. In brief, peritoneal cells from femals CD-1 mice (20-25 g) were collected at 90 min following oral administration of the drug or vehicle (50 µl peanut oil). Cells from each treatment group (N=3) were pooled and equal numbers aliquoted into six culture dish wells (1.9 cm^2 area). After incubation for 18-20 hours, non-adhering cells were removed and the remaining cell monolayer quantitated by DNA measurement.

[4] = tested on: mouse; assay: Mouse hot plate test (55°C) for antinociception; assay type: in vivo
Method: In the hot plate test for analgesia an aluminum surface was maintained at 55 ± 1°C by circulating water through passages in the metal. A clear plastic cylinder 18 cm in diameter and 26 cm high was placed on the surface to prevent escape. The end point was taken when the mouse either performed a hind paw lick or jumped off the surface; in no case were the animals kept for more than 30 secs on the plate. Mice were never used more than one time; control values were always measured at 11 a.m. and test values at 2 p.m. The drugs were administered orally 90 min before the hot plate test. The percent change in response time (latency) was calculated by comparing the mean of the control values with the mean of the test values and statistical signficance determined by a paired t-test analysis using software (Statview, 512) from Brainpower, Inc., Calabasas, Ca.

[5] = tested on: mouse; assay: Ring test for cataleptic effects; assay type: in vivo; conditions: 5-min test period, vehicle 7.7 ± 4.4
Method: The lack of CNS activity for the compounds described herein may be seen from the data shown in Table V. This was measured by the so-called "ring test" [Pertwee, R.G., et al., J. Pharmacol., 46, 753 (1972)] in which the cataleptic effects of cannabinoids can be quantitated. The compounds produced little or no response when compared with the parent drug.
The cataleptic response was measured using the ring test. Mice were placed on a horizontal wire ring 5.5 cm in diameter, which was attached to a 16 cm vertical rod. The hind paws and fore paws were placed at opposite sides of the ring. It is important that the ambient temperature is maintained at 30°C and that the environment be free of auditory stimuli and bright lights. The criteria for immobility are detailed by Pertwee. The response is calculated as the fraction of time the mouse is immobile over a 5-min test period. Measurements were always done between 2 and 4 p.m. and the animals were used only once.

[6] = tested on: picrotoxin induced lethality; assay: Protection against picrotoxin induced lethality; assay type: in vivo, Balb/c male mice; conditions: drug 10 mg/kg, 120 min before picrotoxin (8 mg/kg) s.c.; no drug 0/17
Source text: (§2) The present compounds are active in several tests generally used to indicate neuroprotection.

[7] = tested on: N-methyl-D-aspartate (NMDA) induced lethality; assay: Protection against NMDA induced lethality; assay type: in vivo, Balb/c male mice; conditions: drug 10 mg/kg, 90 min before NMDA (125 mg/kg) s.c.; no drug 0/20
Source text: as §2

[8] = tested on: forebrain ischemia (unilateral occlusion); assay: Forebrain ischemia (unilateral occlusion); assay type: in vivo; conditions: mongolian gerbils
Source text: as §2

[9] = tested on: intraocular pressure; assay: Reduction of intraocular pressure (anti-glaucoma activity); assay type: in vivo, rabbits; conditions: 50 µl drop of a 1% emulsion into the rabbit eye
Method: Reduction of intraocular pressure in rabbits was determined by the addition of a 50 µl drop of a 1% emulsion of the cannabinoid into the rabbit eye. This test is a measure of anti-glaucomatic activity.

[10] = dose 0.05 mg/kg oral, cells collected 90 min after administration
[11] = dose 0.05 mg/kg oral, cells collected 90 min after administration, 18-20 hours incubation
[12] = dose 0.10 mg/kg oral, cells collected 90 min after administration
[13] = dose 0.10 mg/kg oral, cells collected 90 min after administration, 18-20 hours incubation
[14] = dose 0.50 mg/kg oral, cells collected 90 min after administration
[15] = dose 0.50 mg/kg oral, cells collected 90 min after administration, 18-20 hours incubation
[16] = dose 1.00 mg/kg oral, cells collected 90 min after administration
[17] = dose 1.00 mg/kg oral, cells collected 90 min after administration, 18-20 hours incubation
[18] = dose 0.25 mg/kg orally 90 min before the hot plate test
[19] = dose 0.50 mg/kg orally 90 min before the hot plate test
[20] = dose 1.0 mg/kg orally 90 min before the hot plate test

Row | Molecule | percent inhibition of paw edema ([2]; dose 0.5 mg/kg) | adhering cells, percent of control [3, 10] | number of adhering cells x 10^-6 ± S.D. [3, 11] | adhering cells, percent of control [3, 12] | number of adhering cells x 10^-6 ± S.D. [3, 13] | adhering cells, percent of control [3, 14] | number of adhering cells x 10^-6 ± S.D. [3, 15] | adhering cells, percent of control [3, 16] | number of adhering cells x 10^-6 ± S.D. [3, 17] | percent change in latency [4, 18] | percent change in latency [4, 19] | percent change in latency [4, 20] | Survival rate (number of survivors out of total number of animals used) [6] | Survival rate (number of survivors out of total number of animals used) [7] | protection against forebrain ischemia [8] | further results
1 | CCCCCCC(C)(C)c1cc(O)c2c(c1)OC(C)(C)[C@H]1CC=C(C(=O)O)C[C@H]21 [HU-235] | 60.1* percent | 102% of control | 1.29±0.05 x 10^-6 | 110% of control | 1.38±0.17 x 10^-6 | 116% of control | 1.46±0.05 x 10^-6 | 56% of control | 0.70±0.12 x 10^-6 | 61.5(17)** percent | 51.7(8)* percent | 14.7(5) percent | 8/12 | 7/10 | protect against forebrain ischemia | reduction of paw edema (result in words) ([1]; arachidonic acid model, summary of Table 1): effective in reducing paw edema; percent inhibition of paw edema ([1]; dose 0.050 mg.kg): 42.1 (N.S.) percent; percent inhibition of paw edema ([1]; dose 0.100 mg.kg): 65.8* percent; percent inhibition of paw edema ([1]; dose 0.250 mg.kg): 52.6* percent; percent inhibition of paw edema ([1]; dose 0.55 mg.kg): 47.4%; percent inhibition of paw edema ([2]; dose 0.05 mg/kg): 44.4 (N.S.) percent; percent inhibition of paw edema ([2]; dose 0.10 mg/kg): 38.7* percent; percent inhibition of paw edema ([2]; dose 0.25 mg/kg): 31.9* percent; activity against PAF-induced edema (result in words) ([2]; summary of Table II): active; adhering cells, percent of control ([3]; dose 0.01 mg/kg oral, cells collected 90 min after administration): 106% of control; number of adhering cells x 10^-6 ± S.D. ([3]; dose 0.01 mg/kg oral, cells collected 90 min after administration, 18-20 hours incubation): 1.34±0.14 x 10^-6; percent change in latency ([4]; dose 0.025 mg/kg orally 90 min before the hot plate test): 10.3(5) percent; percent change in latency ([4]; dose 0.050 mg/kg orally 90 min before the hot plate test): 61.7(5)* percent; percent change in latency ([4]; dose 0.10 mg/kg orally 90 min before the hot plate test): 49.5(20)* percent; Response ± SD (means of the fraction of time the mice remained immobile) ([5]; dose 0.25 mg/kg): 12.3 ± 10.3; Response ± SD (means of the fraction of time the mice remained immobile) ([5]; dose 0.5 mg/kg): 13.8 ± 7.9; Response ± SD (means of the fraction of time the mice remained immobile) ([5]; dose 1.0 mg/kg): 10.4 ± 10.6; Response ± SD (means of the fraction of time the mice remained immobile) ([5]; dose 4.0 mg/kg): 8.7 ± 5.6; Reduction of intraocular pressure [9]: Significant reduction
2 | THC-7-oic Acid [reference compound] |  |  |  |  |  |  |  |  |  |  |  |  |  |  |  | number of adhering cells x 10^-6 ± S.D. ([3]; dose 20 mg/kg oral, cells collected 90 min after administration, own control 0.81±0.03): 0.67±0.02 x 10^-6; adhering cells, percent of control ([3]; dose 20 mg/kg oral, own control 0.81±0.03): 90.6% of control; number of adhering cells x 10^-6 ± S.D. ([3]; dose 40 mg/kg oral, cells collected 90 min after administration, own control 0.81±0.03): 0.55±0.22 x 10^-6; adhering cells, percent of control ([3]; dose 40 mg/kg oral, own control 0.81±0.03): 67.9% of control
3 | CCCCCc1cc(O)c2c(c1)OC(C)(C)[C@@H]1CC=C(C(=O)O)C[C@@H]21 [Δ^6-THC-7-oic acid, reference compound] |  |  |  |  |  |  |  |  |  |  |  |  |  |  |  | percent inhibition of paw edema ([2]; dose 40.0 mg/kg): 50.2%
4 | CCCCCCC(C)(C)c1cc(O)c2c(c1)OC(C)(C)[C@H]1CC=C(CO)C[C@H]21 [HU-211, reference compound] | 37.5% | 124% of control | 1.09±0.08 x 10^-6 | 50% of control | 0.44±0.03 x 10^-6 | 73% of control | 0.64±0.06 x 10^-6 | 67% of control | 0.59±0.06 x 10^-6 | 30.0(5)* percent | 72.5(5)*** percent | -10.2(5) percent | 6/10 | 11/16 | protect against forebrain ischemia | percent inhibition of paw edema ([2]; dose 1.0 mg/kg): 21.9%
5 | CCCCCc1cc(O)c2c(c1)OC(C)(C)[C@@H]1CCC(C)=C[C@@H]21 [Δ^1-THC, reference compound] |  |  |  |  |  |  |  |  |  |  |  |  |  |  |  | Response ± SD (means of the fraction of time the mice remained immobile) ([5]; dose 40 mg/kg): 48.9 ± 16
